Measured values published in paper PMC9594048, “Targeting a Multidrug-Resistant Pathogen: First Generation Antagonists of Burkholderia cenocepacia’s BC2L-C Lectin” (ACS Chemical Biology, 2022).
Where two headings read alike, the source gives them in different places.

Columns and labels:
[1] = target: T1, BC2L-C-Nt (rBC2L-CN2) (Burkholderia cenocepacia, UniProt B4EH86); assay: Surface plasmon resonance (SPR) affinity on BC2L-C-Nt-coated chip; type: binding; details: 25 °C, rBC2L-CN2 immobilized on CM5 chip, multi-cycle affinity; SD from duplicates
Method: Experiments were performed on a BIACORE X100 instrument (GE Healthcare) at 25 °C in running buffer 10 mM HEPES pH 7.4, 150 mM NaCl, and 0.05% Tween 20, adjusted to include 8% DMSO when required. rBC2L-CN2 was immobilized onto CM5 chips (BIACORE) following the amine coupling procedure detailed in the Supporting Information. The analytes were dissolved in the running buffer at increasing concentrations (range: 3.28–3500 μM) and subjected to multi-cycle affinity studies (300 s association, 300 s dissociation, flow rate 5 μL/min). Injections of compounds at increasing concentrations onto the immobilized rBC2L-CN2 were followed by regeneration of the surface: 10 mM fucose in running buffer and then running buffer at 5 μL/min (100 and 150 s, respectively) after each analyte association/dissociation. For the higher concentrations, regeneration was secured by performing one or more runs replacing analyte by running buffer. Duplicates were performed for all ligands. Binding affinity (KD) was measured after subtracting the channel 1 reference (no immobilized protein) and subtracting a blank injection (running buffer—zero analyte concentration). Data evaluation and curve fitting were performed using the provided BIACORE X100 evaluation software (version 2.0). The protein-coated chip was stored at 4 °C in running buffer and was functional up to 8 weeks after fabrication, as proven by experimentation. […]
3.2. Surface plasmon Resonance
Experiments were performed on a BIACORE X100 instrument (GE Healthcare) at 25 °C in running buffer 10 mM HEPES pH 7.4, 150 mM NaCl and 0.05% Tween 20, adjusted to include 8% DMSO when indicated. rBC2L-CN2 was immobilized onto CM5 chips (BIACORE) following the amine […]
• Activation of the chip by three injections of a NHS/EDC mixture at 10 μL/min for 540s, until a minimum of 300 RU was observed on both channels.
• Injection of rBC2L-CN2 (0.5 mg/mL) dissolved in 10 mM sodium acetate pH 4.5 onto channel 2 (contact time of 540s, flow rate of 10 μL/min), until a minimum of 7000 RU was […]
• Inactivation of both channels by injecting a 1M ethanolamine (pH 8.5) solution at 5 μL/min for 1080s, achieving over 400 and 7000 RU for channel 1 and 2, respectively.
The analytes were dissolved in the running buffer at increasing concentrations (range: 3.28 − 3500 μM) and subjected to multi-cycle affinity studies (300s association, 300s dissociation, flow rate 5 μL/min). Injections of compounds at increasing concentrations onto the immobilized rBC2L-CN2 were followed by regeneration of the surface: 10 mM fucose in running buffer, then running buffer at 5 μL/min (100s and 150s, respectively) after each analyte association/dissociation. For the higher concentrations, regeneration was secured by performing one or more runs replacing analyte by running buffer. Duplicates were performed for all ligands. Binding affinity (KD) was measured after subtracting the channel 1 reference (no immobilized protein) and subtracting of a blank injection (running buffer - zero analyte concentration). Data evaluation and curve fitting was performed using the provided BIACORE X100 evaluation software (version 2.0). […]

[2] = target: T1, BC2L-C-Nt (rBC2L-CN2); assay: Isothermal titration calorimetry (ITC); type: binding; details: for Kd: 25 °C
Method: All experiments were performed at 25 °C with an ITC200 isothermal titration calorimeter (Microcal-Malvern Panalytical, Orsay, France). The protein rBC2L-CN2 and its ligands were dissolved in a buffer composed of 20 mM Tris HCl pH 7.0 and 100 mM NaCl. The 200 μL sample cell containing rBC2L-CN (concentrations ranging from 200 to 400 μM) was subjected to injections of ligand solution: 20 to 39 injections of 1 μL or 70 injections of 0.5 μL (5 to 50 mM, chosen depending on the ligand) at intervals of 100, 120, or 200 s, while stirring at 850 rpm. Control experiments were performed by repeating the same protocol, but injecting the ligand into buffer solution. The supplied software Origin 7 or MicroCal PEAQ-ITC was used to fit the experimental data to a theoretical titration curve allowing the determination of affinity.
3. Ligand evaluation materials and methods
3.1. Isothermal Titration Calorimetry
All experiments were performed at 25 °C with an ITC200 isothermal titration calorimeter (Microcal - Malvern Panalytical, Orsay, France). The protein rBC2L -CN2 and its ligands were dissolved in a buffer composed of 20 mM Tris HCl pH 7.0 and 100 mM NaCl. The 200 µL sample cell containing rBC2L-CN (concentrations ranging from 200 to 400 µM) was subjected to injections of ligand solution: 20 to 39 injections of 1 µL or 70 injections of 0.5 µL (5 to 50 mM, chosen depending on the ligand) at intervals of 100, 120 or 200s while stirring at 850 rpm. Control experiments were performed by repeating the same protocol, but injecting the ligand into buffer solution. The supplied software Origin 7 or MicroCal PEAQ-ITC was used to fit the experimental data to a t heoretical titration curve allowing the determination of affinity (i.e., association constant, K a), binding enthalpy (∆H), and stoichiometry (n). Values for free energy change (∆G) and entropy contributions (T∆S) […]
1.K-1. For experiments in ligand excess, the stoichiometry was fixed to 1. […]

[3] = Solubility (qualitative remark); type: physicochemical; details: prevented affinity evaluation by ITC
[4] = target: T1, BC2L-C-Nt (rBC2L-CN2); assay: biochemical; type: binding; details: for Tonset / Tm1 / Tm2: protein 14.3 μM, ligand 143 μM; for Tonset: SD from duplicates; for Tm1: first thermal event, protein alone 82.2 °C; for Tm2: main thermal event, protein alone 84.5 °C; for ΔTm2: shift of main thermal event vs protein alone
Method: Experiments were performed on a Microcal PEAQ-DSC instrument (Malvern Panalytical, Orsay, France). A buffer composed of 20 mM Tris HCl pH 7.0 and 100 mM NaCl was used to dilute the protein rBC2L-CN2 and its ligands to concentrations 14.3 and 143 μM, respectively. Samples of 250 μL were loaded, while the reference cell was filled with the matching buffer (aforementioned buffer, ligands when relevant). […] The data were acquired on “Low” feedback mode. The supplied software MicroCal PEAQ-DSC Software 1.53 was used to fit the experimental data. […] The profile obtained was fitted with a “NonTwoState” model, accounting for two thermal events. Each experiment was performed in duplicates, and their averages were calculated by the software.
3. […]
3.3. Differential Scanning Calorimetry
Experiments were performed on a Microcal PEAQ-DSC instrument (Malvern Panalytical, Orsay, […]

[5] = 20 mM Tris HCl pH 7.0, 100 mM NaCl, SD from duplicates

T1 sequence (B4EH86 entry or part of it): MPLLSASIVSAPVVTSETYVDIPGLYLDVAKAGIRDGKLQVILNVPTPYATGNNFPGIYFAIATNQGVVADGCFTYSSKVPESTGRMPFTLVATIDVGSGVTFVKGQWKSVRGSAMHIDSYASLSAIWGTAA

C[C@@H]1O[C@H](NC(=O)c2ccc(C(C)(C)CN)cc2)[C@@H](O)[C@H](O)[C@@H]1O [8a]
Kd [1]: 940 ± 10 µM | Kd [2, 5]: 2550 ± 1000 µM

CNCc1ccc(C(=O)N[C@H]2O[C@@H](C)[C@@H](O)[C@@H](O)[C@@H]2O)cc1 [8b]
Kd [1]: 1570 ± 60 µM | Kd [2, 5]: 3660 ± 210 µM

C[C@@H]1O[C@H](NC(=O)c2ccc(-c3cccc(N)c3)o2)[C@@H](O)[C@H](O)[C@@H]1O [8c]
Kd [1]: 2360 ± 970 µM | solubility [3]: very low and poor

C[C@@H]1O[C@H](NC(=O)c2ccc3cc[nH]c3c2)[C@@H](O)[C@H](O)[C@@H]1O [8d]
Kd [1]: 3420 ± 220 µM | Kd [2, 5]: 3490 ± 1300 µM

C[C@@H]1O[C@H](NC(=O)c2ccc3[nH]ccc3c2)[C@@H](O)[C@H](O)[C@@H]1O [8e]
Kd [1]: 1420 ± 20 µM | activity compared with methyl-fucoside 13 (ITC) ([2]; ITC KD compared with […]): better activity than methyl-fucoside 13

C[C@@H]1O[C@H](n2cc(-c3ccc(C(C)(C)CN)cc3)nn2)[C@@H](O)[C@H](O)[C@@H]1O [12a]
Kd [1]: 1190 ± 50 µM | Kd [2, 5]: 2490 ± 60 µM

CNCc1ccc(-c2cn([C@H]3O[C@@H](C)[C@@H](O)[C@@H](O)[C@@H]3O)nn2)cc1 [12b]
Kd [1]: 2450 ± 20 µM | Kd [2, 5]: 6250 ± 720 µM

C[C@@H]1O[C@H](C#Cc2ccc(C(C)(C)CN)cc2)[C@@H](O)[C@H](O)[C@@H]1O [22a]
Kd [1]: 1330 ± 150 µM | Kd [2]: 281 µM | Kd [2, 5]: 280 ± 10 µM | affinity increase from αMeFuc (ITC) ([2]; relative to […]): ~10 fold | Tonset [4]: 73.29 ± 1.54 °C | Tm1 [4]: 82.43 ± 0.02 °C | Tm2 [4]: 84.71 ± 0.01 °C | ΔTm at 143 µM ([4]; read-out: ΔTm1): 0.21 °C | ΔTm at 143 µM ([4]; read-out: ΔTm2): 0.17 °C

CNCc1ccc(C#C[C@H]2O[C@@H](C)[C@@H](O)[C@@H](O)[C@@H]2O)cc1 [22b]
Kd [1]: 7850 ± 3390 µM | Kd [2, 5]: 1240 ± 70 µM

C[C@@H]1O[C@H](C#CC(O)c2ccc3ncccc3c2)[C@@H](O)[C@H](O)[C@@H]1O (stereo partly shown) [22f]
Kd [1]: 301 ± 1 µM | Kd [2]: 490 µM

C[C@@H]1O[C@H](C#Cc2ccc(CNC(=N)N)cc2)[C@@H](O)[C@H](O)[C@@H]1O [22g]
Kd [1]: 1300 ± 600 µM | Kd [2, 5]: 910 ± 30 µM

CNCc1ccc(/C=C/[C@H]2O[C@@H](C)[C@@H](O)[C@@H](O)[C@@H]2O)cc1 [28b]
Kd [1]: 1020 ± 20 µM | Kd [2, 5]: 3370 ± 400 µM

CC(=O)N[C@H]1C(O)O[C@H](CO)[C@@H](O)[C@@H]1O[C@@H]1O[C@H](CO)[C@H](O)[C@H](O)[C@H]1O[C@@H]1O[C@@H](C)[C@@H](O)[C@@H](O)[C@@H]1O (stereo partly shown) [H-type 1 trisaccharide, Fucα(1–2)Galβ(1–3)GlcNAc]
Tonset [4]: 74.09 ± 0.26 °C | Tm1 [4]: 82.65 ± 0.01 °C | Tm2 [4]: 84.92 ± 0.01 °C | ΔTm1 ([4]; shift of first thermal event vs protein alone): 0.44 °C | ΔTm2 [4]: +0.38 °C | ΔTm2 ([4]; listed as H-type 1): 0.38 ± 0.01 °C
